{
  "source": "patent US20090317491A1",
  "about": "“MANUFACTURING METHOD OF MEDICAL STERILIZED ISOTONIC SOLUTION HAVING LOW-CONCENTRATEDLY CONTROLLED FREE CHLORINE INCLUDING HYPOCHLOROUS ACID THEREIN” (priority 2007, published 2009)",
  "key": {"[1]": {"test_system": "Vancomycin-resistent Enterococcus faecium", "conditions": "normal temperature; cited from earlier work"}, "Haemophilus influenzae": {"test_system": "Haemophilus influenzae", "conditions": "normal temperature; cited from earlier work"}, "[2]": {"assay": "Half-life time of HOCl in water / outside the body (FIG. 16)", "type": "physicochemical", "conditions": "water (medical sterilized normal saline), neutral or subacid, outside of human body", "experimental": "Especially, HOCl generated in the medical sterilized normal saline is very unstable in neutral or subacid area, and thus is tend to be reduced to a half only for 3 minutes. Therefore, the free chlorines should be supplied to patients within 3 minutes from manufacturing the medical normal saline. […] Therefore, prompt supply into the body right after manufacturing the medical normal saline can obtain enough time to sterilize or kill germs, fungi, bacteria, the causes of diseases.\nFIG. 16 is a graph of the amount of the free chlorine in accordance with the 20 seconds operation time."}, "Escherichia coli": {"test_system": "Escherichia coli", "conditions": "normal temperature; cited from earlier work"}, "[3]": {"test_system": "Staphylococcus epidermidis", "conditions": "normal temperature; cited from earlier work"}, "[4]": {"test_system": "Staphylococcus saprophyticus", "conditions": "normal temperature; cited from earlier work"}, "Staphylococcus aureus": {"test_system": "Staphylococcus aureus", "conditions": "normal temperature; cited from earlier work"}, "Klebsiella pneumoniae": {"test_system": "Klebsiella pneumoniae", "conditions": "normal temperature; cited from earlier work"}, "Pseudomonas aeruginosa": {"test_system": "Pseudomonas aeruginosa", "conditions": "normal temperature; cited from earlier work"}, "Sterptococcus pyogenes": {"test_system": "Sterptococcus pyogenes", "conditions": "normal temperature; cited from earlier work"}, "Micrococcus luteus": {"test_system": "Micrococcus luteus", "conditions": "normal temperature; cited from earlier work"}, "Proteus mirabilis": {"test_system": "Proteus mirabilis", "conditions": "normal temperature; cited from earlier work"}, "Enterobacter aerogenes": {"test_system": "Enterobacter aerogenes", "conditions": "normal temperature; cited from earlier work"}, "[5]": {"test_system": "Methicillin-resistent Staphylococcus aureus", "conditions": "normal temperature; cited from earlier work"}, "[6]": {"test_system": "Corynebacterium amycolatum", "conditions": "normal temperature; cited from earlier work"}, "[7]": {"test_system": "Staphylococcus haemolyticus", "conditions": "normal temperature; cited from earlier work"}, "Serratia marcescens": {"test_system": "Serratia marcescens", "conditions": "normal temperature; cited from earlier work"}, "[8]": {"conditions": "HOCl versus OCl−; cited from earlier work"}, "Staphylococcus hominis": {"test_system": "Staphylococcus hominis", "conditions": "normal temperature; cited from earlier work"}, "[9]": {"conditions": "inside of a human body / mammal bodies; cited from earlier work"}, "[10]": {"conditions": "mucosa of a nose and eyes; cited from earlier work"}},
  "data": [
    {"smiles": "OCl", "note": "[HOCl, Hypochlorous acid]", "values": [
      {"measurement": "MBC", "setting": "[1]", "value": 2.73, "unit": "ppm"},
      {"measurement": "MBC", "setting": "Haemophilus influenzae", "value": 0.338, "unit": "ppm"},
      {"measurement": "half-life", "setting": "[2]", "value": 3, "unit": "min"},
      {"measurement": "MBC", "setting": "Escherichia coli", "value": 0.7, "unit": "ppm"},
      {"measurement": "MBC", "setting": "[3]", "value": 0.338, "unit": "ppm"},
      {"measurement": "MBC", "setting": "[4]", "value": 0.35, "unit": "ppm"},
      {"measurement": "MBC", "setting": "Staphylococcus aureus", "value": 0.173, "unit": "ppm"},
      {"measurement": "MBC", "setting": "Klebsiella pneumoniae", "value": 1.7, "unit": "ppm"},
      {"measurement": "MBC", "setting": "Pseudomonas aeruginosa", "value": 0.35, "unit": "ppm"},
      {"measurement": "MBC", "setting": "Sterptococcus pyogenes", "value": 0.169, "unit": "ppm"},
      {"measurement": "MBC", "setting": "Micrococcus luteus", "value": 2.77, "unit": "ppm"},
      {"measurement": "MBC", "setting": "Proteus mirabilis", "value": 0.340, "unit": "ppm"},
      {"measurement": "MBC", "setting": "Enterobacter aerogenes", "value": 0.676, "unit": "ppm"},
      {"measurement": "MBC", "setting": "[5]", "value": 0.682, "unit": "ppm"},
      {"measurement": "MBC", "setting": "[6]", "value": 0.169, "unit": "ppm"},
      {"measurement": "MBC", "setting": "[7]", "value": 0.338, "unit": "ppm"},
      {"measurement": "MBC", "setting": "Serratia marcescens", "value": 0.169, "unit": "ppm"},
      {"measurement": "sterilizing efficacy relative to OCl−", "setting": "[8]", "value": 80, "unit": "times"},
      {"measurement": "MBC", "setting": "Staphylococcus hominis", "value": 1.4, "unit": "ppm"},
      {"measurement": "half-life time", "setting": "[9]", "value": 44, "unit": "h"},
      {"measurement": "concentration of HOCl that causes trouble on sensitive parts of human body and stench of the solution", "setting": "[10]", "value": "over 6 ppm"}
    ]}
  ]
}
